From article PMC5320522, “Membrane targeting of TIRAP is negatively regulated by phosphorylation in its phosphoinositide-binding motif” (Scientific Reports, 2017)
Like-named read-outs stand apart in the source and are kept apart here.

Legend:
Type in all cases: binding
[1] = target: T1, TIRAP PBM (Homo sapiens, UniProt P58753); assay: 1H, […]-HSQC NMR; lipid-protein overlay; conditions: DPC micelles, pH 6, 25 °C (NMR)
T1 construct: recombinant (isotope-labelled) or synthetic (Thr28-P); GST-fused in overlay assays

[2] = target: T1, TIRAP PBM; assay: SPR, L1 chip with liposomes, steady-state fit; conditions: DOPC liposomes with 5% PtdIns(4,5)P2; 20 mM HEPES pH 7, 100 mM NaCl; room temperature; synthetic peptide phosphorylated at Thr28; saturation not reached
[3] = target: T1, TIRAP PBM; assay: SPR, L1 chip with liposomes, steady-state fit; conditions: DOPC liposomes with 5% PtdIns(4,5)P2; 20 mM HEPES pH 7, 100 mM NaCl; room temperature; read-out: KD (apparent)

T1 sequence (P58753 15-35): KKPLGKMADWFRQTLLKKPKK

Kd [2]	Kd [3]	Molecule	1H,15N-HSQC NMR; lipid-protein overlay [1]
–	–	CCCCCCCCCCCCCCCC(=O)OC[C@H](COP(=O)(O)O[C@@H]1[C@H](O)[C@H](O)[C@@H](OP(=O)(O)O)[C@H](OP(=O)(O)O)[C@H]1O)OC(=O)CCCCCCCCCCCCCCC [c16-PtdIns(4,5)P2]	Similar, but larger, resonance perturbations in DPC-embedded TIRAP PBM spectra were observed
787 ± 291 nM	233 ± 45 nM	PtdIns(4,5)P2	–
